Publication PMC7496931, “Activation of Sirtuin 2 Inhibitors Employing Photoswitchable Geometry and Aqueous Solubility” (Chemmedchem, 2020)
Like-named read-outs stand apart in the source and are kept apart here.

Experiments:
Sirt3 = biological target: T1, Sirt3 (Homo sapiens, UniProt Q9NTG7); assay: Fluorescence-based ZMAL deacetylase activity assay, Sirt3; format: biochemical; conditions: non-irradiated; for IC50: read-out: Sirt3 inhibition, IC50
T1 construct: Expression and purification of Sirt1_133−747, Sirt2_56−356, and Sirt3_118−395 was carried out as described previously; made in house
T1 sequence (Q9NTG7 118-395): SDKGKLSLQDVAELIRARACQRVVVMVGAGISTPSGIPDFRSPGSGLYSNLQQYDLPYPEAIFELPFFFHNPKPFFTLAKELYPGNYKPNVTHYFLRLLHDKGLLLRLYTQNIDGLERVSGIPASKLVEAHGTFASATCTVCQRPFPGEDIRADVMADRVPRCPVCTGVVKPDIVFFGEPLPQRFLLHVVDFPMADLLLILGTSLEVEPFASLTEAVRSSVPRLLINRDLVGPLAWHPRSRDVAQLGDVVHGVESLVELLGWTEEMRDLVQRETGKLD
Description: (§1) The effect of the compounds on deacetylase activity of three human sirtuin isotypes (Sirt1–3) was investigated by a homogeneous fluorescence‐based assay, using (Z)‐Lys(acetyl)‐AMC (ZMAL) as substrate. In order to determine the impact of photoisomerization, the respective compounds were irradiated (365 nm, 5 min) in DMSO prior to incubation in the enzyme assay mixture. The results of the irradiated probes were finally compared to non‐irradiated measurements.
(§2) Cloning, expression and purification of recombinant proteins: Expression and purification of Sirt1_133−747, Sirt2_56−356, and Sirt3_118−395 was carried out as described previously.27 Identity and purity were verified by SDS‐PAGE.
(§3) Fluorescence‐based activity assay: The inhibitory effect of compounds on Sirt1–3 was detected via a previously reported fluorescence‐based assay.29 The synthetic substrate (Z)‐Lys(acetyl)‐AMC (ZMAL) is deacetylated by sirtuins, followed by tryptic digestion and thereby release of 7‐aminomethylcoumarin, leading to a fluorescent readout. Inhibition was determined by comparing percentage substrate conversion to a DMSO control after subtraction of the blank fluorescence signal. All compounds were tested at 100 or 50 μM and 10 μM respectively. […] IC50 values were calculated with OriginPro 9.0 G using a non‐linear regression to fit the dose response curve (Figure S6). An enzyme‐free blank control and a 100 % conversion control using AMC instead of ZMAL were measured as well. Inhibition measurements were performed in biological duplicates for all compounds. […]
(§4) Fluorescence-Based Activity Assay (ZMAL-Assay)
(§5) The influence of the synthesized compounds on the deacetylase activity of the class I sirtuins Sirt1–3 was determined in a homogenous fluorescence-based enzyme assay, using the artificial substrate Z-(Ac)Lys-AMC (ZMAL). ZMAL is processed by sirtuins yielding Z-Lys-AMC.
(§6) The latter is subsequently cleaved by tryptic digestion, releasing 7-amino-4-methylcoumarin (AMC), excitation of which leads to a fluorescent read out (λex=390 nm; λem=460 nm). Instead, […]
(§7) contribute to the fluorescence signal. Therefore, the fluorescence intensity is proportional to the activity of the respective sirtuin.
(§8) After subtraction of the blank fluorescence signal (without enzyme) from the signal of the respective probe, the residual signal intensity is related to a 100 % conversion control (AMC), […]
(§9) yielding the percentage substrate conversion. Comparison of the determined substrate conversion with a no-inhibition DMSO control yields the percentage inhibition at the respective […]
(§10) For determination of IC50, inhibitory activity of the respective compound was determined at 8 to 10 distinct concentrations. The measured values were analysed by a non-linear fit to the dose-response curve using a four parameter logistic model (Figure S6):
(§11) Figure S6: Non-linear regression of the dose-response curves of compounds 15c and 15f at the thermal equilibrium (∆, black) and after 5 minutes of 365 nm irradiation (red). […]
(§12) A maximal polarization control using just DMSO and a minimal polarization control using 1 µL of the 400 µM solution of 22 instead of inhibitor were performed as well as a blank control containing 1 µL of DMSO in 19 µL assay buffer. The mixture was incubated 10 min at 37 °C

Sirt1 = biological target: T2, Sirt1 (Homo sapiens, UniProt Q96EB6); assay: Fluorescence-based ZMAL deacetylase activity assay, Sirt1; format: biochemical; conditions: non-irradiated
T2 construct: Expression and purification of Sirt1_133−747, Sirt2_56−356, and Sirt3_118−395 was carried out as described previously; made in house
T2 sequence (Q96EB6 133-747): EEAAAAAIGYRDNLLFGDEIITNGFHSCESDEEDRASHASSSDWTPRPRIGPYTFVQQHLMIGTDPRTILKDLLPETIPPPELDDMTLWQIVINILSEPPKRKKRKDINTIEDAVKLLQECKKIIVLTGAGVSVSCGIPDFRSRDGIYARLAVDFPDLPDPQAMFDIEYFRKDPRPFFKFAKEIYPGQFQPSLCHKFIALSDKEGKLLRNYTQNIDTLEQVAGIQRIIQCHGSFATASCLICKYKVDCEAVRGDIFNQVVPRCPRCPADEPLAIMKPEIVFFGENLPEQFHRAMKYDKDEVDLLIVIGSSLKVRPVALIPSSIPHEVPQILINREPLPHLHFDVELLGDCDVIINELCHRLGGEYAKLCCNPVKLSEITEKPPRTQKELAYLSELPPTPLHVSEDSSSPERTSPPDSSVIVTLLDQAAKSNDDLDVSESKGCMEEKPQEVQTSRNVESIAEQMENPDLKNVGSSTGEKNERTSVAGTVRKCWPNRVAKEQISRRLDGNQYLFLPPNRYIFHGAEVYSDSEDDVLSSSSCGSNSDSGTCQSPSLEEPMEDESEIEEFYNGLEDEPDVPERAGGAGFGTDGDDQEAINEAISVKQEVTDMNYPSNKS
Description: as §1, §2, §3, §4, §5, §6, §7, §8, §9, §10, §11
A maximal polarization control using just DMSO and a minimal polarization control using 1 µL of the 400 µM solution of 22 instead of inhibitor were performed as well as a blank control containing 1 µL of DMSO in 19 µL assay buffer. The mixture was incubated 10 min at 37 °C […]
(§13) (1 picture or pasted object on this page, not shown here)

Sirt2 [1] = biological target: T3, Sirt2 (Homo sapiens, UniProt Q8IXJ6); assay: Fluorescence-based ZMAL deacetylase activity assay, Sirt2; format: biochemical; conditions: non-irradiated; for IC50: read-out: Sirt2 inhibition, IC50; for inhibition at 10 µM / inhibition at 100 µM: read-out: Sirt2 inhibition, percent inhibition relative to controls
T3 construct: Expression and purification of Sirt1_133−747, Sirt2_56−356, and Sirt3_118−395 was carried out as described previously; made in house
T3 sequence (Q8IXJ6 56-356): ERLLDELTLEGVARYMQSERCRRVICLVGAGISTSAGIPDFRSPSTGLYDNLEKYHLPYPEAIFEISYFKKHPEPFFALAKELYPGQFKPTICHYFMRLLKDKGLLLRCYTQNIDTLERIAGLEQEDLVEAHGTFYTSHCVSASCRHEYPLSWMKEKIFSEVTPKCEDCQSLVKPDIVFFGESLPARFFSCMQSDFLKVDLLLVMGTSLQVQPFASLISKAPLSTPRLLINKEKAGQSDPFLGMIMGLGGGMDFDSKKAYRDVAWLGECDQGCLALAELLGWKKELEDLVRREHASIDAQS
Description: as §1, §2, §3, §4, §5, §6, §7, §8, §9, §10, §11, §12

[2] = UV/Vis spectra and half-life of thermal Z→E isomerization; format: physicochemical
Description: Photochemistry: All photoisomerization experiments were conducted under ruby light of 630 nm and total exclusion of daylight. Illumination was executed using a Bio‐Link 254 Crosslinker from Vilber‐Lourmat equipped with six Vilber‐Lourmat T8‐L lamps (8 W, 365 nm). Visible light radiation of 630 nm (ruby) and 452 nm (blue) was derived from a Paulmann FlexLED 3D strip. All compounds were irradiated in solution using spectrophotometric grade solvents. Photoisomerization and UV/Vis‐spectra measurement was conducted in quartz glass cuvettes (114‐QS, Hellma Analytics) at room temperature.
UV/Vis Spectra and Half-Life of Thermal Isomerization
The half-life of the thermal Z→E isomerization after 5 minutes of 365 nm irradiation was determined by UV/Vis-spectroscopy. Therefore, solutions of the respective compounds (50 µM) in 5%, 50% or 90% DMSO in enzyme assay buffer (v/v) were prepared. An initial spectrum of the thermal equilibrium was recorded. After 5 minutes of irradiation with 365 nm the increase of absorbance at the thermal equilibrium maximum (λ∆max) was recorded as exemplified by compound 15c (Figure S3). Absorbance at λ = λ ∆max was plotted as a function of time. Non-linear regression yielded the half-life of the thermal Z→E isomerization (Table S1). For extrapolation of the reaction kinetics, the plateau value was set to the initial absorbance at λ=λ∆max. The following equation was used for non-linear regression:
y = (y0 − Plateau)e−kx + Plateau
Figure S3: Left: UV-Vis spectrum of 15c (50 µM) in assay buffer (5% DMSO, v/v) at the thermal equilibrium (∆) and the photostationary state (PSS) after UV irradiation (365 nm). Right:
Absorbance of 15c (50 µm) in assay buffer (5% DMSO, v/v) at λ∆max = 328 nm after 5 minutes of UV (365 nm) irradiation.
as §13

Sirt2 [3] = biological target: T3, Sirt2; design: method as in PMID 29685963; conditions: lead 3, previously published; read-out: Sirt2 inhibition, IC50; cited from earlier work
[4] = read-out: Sirt1 inhibition, percent inhibition relative to controls
[5] = read-out: Sirt3 inhibition, percent inhibition relative to controls

## COC(=O)c1cncc(/N=N/c2cc(C)c(N)c(C)c2)c1 [6 f]
Sirt3
  Sirt3 inhibition (class): n.i. (n.i.: no inhibition detected (<30 % @ 100 μM))
Sirt1
  Sirt1 inhibition (class): n.i. (n.i.: no inhibition detected (<30 % @ 100 μM))
Sirt2 [1]
  Sirt2 inhibition (class): n.i. (n.i.: no inhibition detected (<30 % @ 100 μM))
other
  melting point: 190.6 °C

## Cc1cc(O)cc(C)c1/N=N/c1cncc(C(N)=O)c1 [7 a]
Sirt3
  IC50: 9.5 ± 0.9 µM
Sirt1; [4]
  inhibition at 50 µM: 14%
Sirt2 [1]
  IC50: 7.9 ± 0.6 µM

## Cc1cc(/N=N/c2cncc(C(N)=O)c2)cc(C)c1O [7 b]
Sirt3
  IC50: 7.9 ± 0.5 µM
Sirt1; [4]
  inhibition at 50 µM: 19%
[2]; in acetonitrile
  thermal Z→E isomerization (in words): rapid thermal isomerization
Sirt2 [1]
  IC50: 10.8 ± 0.6 µM
other
  melting point: 166.4 °C

## COc1cc(/N=N/c2cncc(C(N)=O)c2)cc(OC)c1O [7 d]
Sirt3; @ 50 μM, read-out: Sirt3 inhibition, percent inhibition relative to controls
  inhibition at 50 µM: 39%
Sirt1; [4]
  inhibition at 10 µM: 10%
Sirt2 [1]
  inhibition at 10 µM: 62%
other
  melting point: 250.2 °C

## CN(C)c1ccc(/N=N/c2cncc(C(N)=O)c2)cc1 [7 e]
Sirt3; [5]
  inhibition at 10 µM: 66%
Sirt1; [4]
  inhibition at 10 µM: 17%
Sirt2 [1]
  inhibition at 10 µM: 54%

## CNC(=O)c1cncc(/N=N/c2cc(C)c(N)c(C)c2)c1 [12 a]
Sirt3; [5]
  inhibition at 100 µM: 45%
Sirt1; @ 100 μM, read-out: Sirt1 inhibition, percent inhibition relative to controls
  inhibition at 100 µM: 33%
Sirt2 [1]
  inhibition at 100 µM: 45%

## CCNC(=O)c1cncc(/N=N/c2cc(C)c(N)c(C)c2)c1 [12 b]
Sirt3; [5]
  inhibition at 10 µM: 11%
Sirt1
  Sirt1 inhibition (class): n.i. (n.i.: no inhibition detected (<30 % @ 100 μM))
Sirt2 [1]
  inhibition at 10 µM: 16%

## CCCCNC(=O)c1cncc(/N=N/c2cc(C)c(N)c(C)c2)c1 [12 c]
Sirt3; [5]
  inhibition at 10 µM: 11%
Sirt1
  Sirt1 inhibition (class): n.i. (n.i.: no inhibition detected (<30 % @ 100 μM))
Sirt2 [1]
  inhibition at 10 µM: 17%

## Cc1cc(/N=N/c2cncc(C(=O)NCCO)c2)cc(C)c1N [12 d]
Sirt3; [5]
  inhibition at 100 µM: 43%
Sirt1
  Sirt1 inhibition (class): n.i. (n.i.: no inhibition detected (<30 % @ 100 μM))
Sirt2 [1]
  inhibition at 100 µM: 43%

## NC(=O)c1cncc(OCc2cccc(/N=N/c3ccc(N4CCOCC4)cc3)c2)c1 [20 d]
Sirt3; [5]
  inhibition at 10 µM: 33%
Sirt1
  Sirt1 inhibition (class): n.i. (n.i.: no inhibition detected (<30 % @ 100 μM))
[2]; aqueous solution
  thermal Z→E isomerization (in words): rapid thermal Z→E isomerization
Sirt2 [1]
  inhibition at 10 µM: 49%
  IC50: ~10 µM
other
  melting point: 202.1 °C

## Cc1cc(O)cc(C)c1/C=C/c1cncc(C(N)=O)c1 [compound 3]
Sirt2 [3]
  IC50: 25 µM

## CCOC(=O)c1cncc(/N=N/c2cc(C)c(N)c(C)c2)c1 [compound 11]
Sirt3
  Sirt3 inhibition (class): n.i. (n.i.: no inhibition detected (<30 % @ 100 μM))
Sirt1
  Sirt1 inhibition (class): n.i. (n.i.: no inhibition detected (<30 % @ 100 μM))
Sirt2 [1]
  Sirt2 inhibition (class): n.i. (n.i.: no inhibition detected (<30 % @ 100 μM))
